Reference: ChEMBL document CHEMBL1134410, “Discovery of novel N-phenylglycine derivatives as potent and selective beta(3)-adrenoceptor agonists for the treatment of frequent urination and urinary incontinence” (J Med Chem, 2001)

Legend:
Assay type in all cases: functional
[1] = target: Beta-1 adrenergic receptor (Rattus norvegicus) (UniProt P18090); assay: Increase in BPM in isolated rat atria.
[2] = target: Beta-2 adrenergic receptor (Rattus norvegicus, UniProt P10608); assay: Agonistic activity towards beta-2 adrenoceptor. Mean concentration required to produce 50% inhibition of uterine contraction
Beta-2 adrenergic receptor, sequence (P10608 whole entry): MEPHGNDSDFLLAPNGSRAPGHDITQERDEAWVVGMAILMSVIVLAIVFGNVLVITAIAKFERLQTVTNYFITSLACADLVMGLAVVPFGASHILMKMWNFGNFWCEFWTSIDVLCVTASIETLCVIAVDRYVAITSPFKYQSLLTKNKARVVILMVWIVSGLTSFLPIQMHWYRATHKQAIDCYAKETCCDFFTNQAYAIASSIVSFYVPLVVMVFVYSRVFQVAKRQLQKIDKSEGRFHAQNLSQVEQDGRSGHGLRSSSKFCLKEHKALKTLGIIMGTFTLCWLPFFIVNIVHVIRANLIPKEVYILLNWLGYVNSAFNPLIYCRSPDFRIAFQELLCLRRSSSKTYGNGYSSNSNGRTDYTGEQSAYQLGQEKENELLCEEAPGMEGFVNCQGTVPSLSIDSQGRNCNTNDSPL

Rattus norvegicus [3] = species: Rattus norvegicus; assay: In vitro concentration required to produce 50% relaxation of rat detrusor
[4] = Concentration ratio of beta-2 (EC50) to beta3 (EC50)
[5] = Concentration ratio of beta-1 (EC50) to beta3 (EC50)
Mustela putorius furo = species: Mustela putorius furo; assay: In vitro concentration required to produce 50% relaxation of ferret detrusor
Rattus norvegicus [6] = assay: In vivo dose required to lower the intrabladder pressure of the anesthetized rat by 50% over that before compound administration
[7] = Concentration ratio of beta2 (EC50) to […]
[8] = Concentration ratio of beta-1 (EC50) to beta-3 (EC50)

Beta-1 adrenergic receptor (Rattus norvegicus), sequence (P18090 whole entry, looked up): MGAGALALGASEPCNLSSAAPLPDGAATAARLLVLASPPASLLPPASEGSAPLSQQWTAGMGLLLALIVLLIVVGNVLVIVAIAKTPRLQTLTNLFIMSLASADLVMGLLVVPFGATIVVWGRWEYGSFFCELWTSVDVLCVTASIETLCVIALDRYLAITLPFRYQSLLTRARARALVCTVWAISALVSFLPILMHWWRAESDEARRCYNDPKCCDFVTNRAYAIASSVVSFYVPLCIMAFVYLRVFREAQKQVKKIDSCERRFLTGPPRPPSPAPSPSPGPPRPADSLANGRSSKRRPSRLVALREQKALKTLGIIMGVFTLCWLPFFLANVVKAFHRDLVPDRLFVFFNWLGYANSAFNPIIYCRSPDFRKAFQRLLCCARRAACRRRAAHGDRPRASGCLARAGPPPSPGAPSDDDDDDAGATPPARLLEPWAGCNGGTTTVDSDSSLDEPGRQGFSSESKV

-Log EC20 [1]	IC50 [2] [nM]	Compound	Selectivity [4]	Selectivity [5]	other results
4.54	14100	C[C@H](NCCc1cc(Cl)c(NCC(=O)O)c(Cl)c1)[C@H](O)c1ccc(O)cc1	1000	2070	EC50 (Rattus norvegicus [3]): 191 nM; EC50 (Mustela putorius furo): 14.1 nM; ED50 (Rattus norvegicus [6]): 0.048 mg/kg
5.89	1290	C[C@H](NCCc1cc(Cl)c(NCC(=O)O)cc1Cl)[C@H](O)c1ccc(O)cc1	21	21	–
5.89	646	C[C@H](NCCc1ccc(NCC(=O)O)cc1)[C@H](O)c1ccc(O)cc1	27	54	–
5.57	3310	C[C@H](NCCc1ccc(NCC(=O)O)c(Cl)c1)[C@H](O)c1ccc(O)cc1	–	2900	Selectivity [7]: 3550
4.6	–	C[C@H](NCCc1ccc(N(C)CC(=O)O)c(Cl)c1)[C@H](O)c1ccc(O)cc1	> 9090	2270	-Log IC50 [2]: > 4
4.96	11000	C[C@H](NCCc1ccc(NC(C)(C)C(=O)O)cc1)[C@H](O)c1ccc(O)cc1	–	–	–
> 4	–	C[C@H](NCCc1cc(Cl)c(N(C)CC(=O)O)c(Cl)c1)[C@H](O)c1ccc(O)cc1	> 625	> 625	-Log IC50 [2]: > 4
4.57	282	C[C@H](NCCc1ccc(N(CC(=O)O)CC(=O)O)cc1)[C@H](O)c1ccc(O)cc1	–	–	–
6.82	1700	C[C@H](NCCc1ccc(NCC(=O)O)c(Cl)c1Cl)[C@H](O)c1ccc(O)cc1	3.7	0.33	–
5.47	1580	C[C@H](NCCc1ccc(N(C)CC(=O)O)cc1)[C@H](O)c1ccc(O)cc1	31	65	–
–	–	CC(C)NCC(O)c1ccc(O)c(O)c1 (configuration not stated) [ISOPROTERENOL]	–	–	EC50 (Rattus norvegicus [3]): 10 nM; ED50 (Rattus norvegicus [6]): 0.0006 mg/kg
6.96	61.7	C[C@H](NCCc1ccc(NCC(=O)O)cc1Cl)[C@H](O)c1ccc(O)cc1	8.6	15	–
6.8	24	CC(NCCc1ccc(O)cc1)C(O)c1ccc(O)cc1 (configuration not stated) [RITODRINE]	–	–	–
6.59	1410	C[C@H](NCCc1ccc(NC(C)(C)C(=O)O)cc1Cl)[C@H](O)c1ccc(O)cc1	250	–	Selectivity [8]: 46
5.27	2190	C[C@H](NCCc1ccc(NCC(=O)O)c(I)c1)[C@H](O)c1ccc(O)cc1	2.7	6.6	–
5.1	1410	C[C@H](NCCc1ccc(NCC(=O)O)c(Br)c1)[C@H](O)c1ccc(O)cc1	2.5	14	–
4.72	2570	C[C@H](NCCc1cc(Br)c(NCC(=O)O)c(Br)c1)[C@H](O)c1ccc(O)cc1	32	235	–

Compound	-Log EC20 [1]	IC50 [2] [nM]	Selectivity [4]	Selectivity [5]	other results
C[C@H](Cc1ccc(OCC(=O)O)cc1)NC[C@H](O)c1cccc(Cl)c1	–	9.12	–	–	–
C[C@H](NCCc1ccc(N(CC(=O)O)Cc2ccccc2)cc1)[C@H](O)c1ccc(O)cc1	6.82	251	–	–	–
C[C@H](Cc1ccc2c(c1)OC(C(=O)O)(C(=O)O)O2)NC[C@H](O)c1cccc(Cl)c1	4.77	–	–	–	–
